Holding throughout (format): cell-based, human
In one assay the test system is NCIH82 cells. The assay is described as follows: Cell proliferation experiment, NCI-H82. To be noted: read-out: Inhibitory activity IC50 on NCI-H82. The essentials:
(§1)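 Single-cell suspensions from log-phase cultures, passaged at least 2 generations, are seeded into 96-well plates and given compound in complete medium. Following 72 h, fluorescence with Alamar blue is recorded and fitted for IC50.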

Another assay deals with MV4;11 cells. In words: Cell proliferation experiment (Alamar blue, 72 h), MV4;11. The conditions noted are these: read-out: Inhibitory activity IC50 on MV4;11. In outline:
as §1
(Resazurin is reduced to fluorescent resorufin, in cell work by metabolically active cells.)

A further assay deals with MDA-MB-231 cells. The assay is described as follows: Cell proliferation experiment, MDA-MB-231. The conditions noted are these: read-out: Inhibitory activity IC50 on MDA-MB-231. The essentials: as §1
Another assay deals with PC-3. The assay is described as follows: Cell proliferation experiment, PC-3. The conditions noted are these: read-out: Inhibitory activity IC50 on PC-3. The essentials: as §1
The mark [1] stands for this setting: Homo sapiens, NCI-H82, NCI-H82 cells.
Setting [2] is: Homo sapiens, MV4-11, MV4;11 cells.
Where [3] appears, read: Homo sapiens, MDA-MB-231, MDA-MB-231 cells.

Each structure is given as a SMILES string. Where two headings read alike, the source gives them in different places. Some results are limits rather than exact numbers.

22 compounds from patent publication US20230210999A1, “TARGETED PROTEASE DEGRADATION (TED) PLATFORM” (EUBULUS BIOTHERAPEUTICS INC., priority 2020, published 2023) can be followed below.

In the case of `CNC(=O)c1ccccc1Nc1nc(Nc2ccc(N3CCN(C(=O)NC4CCC(NCCCCOCC(=O)Nc5ccc6c(c5)CN(C5CCC(=O)NC5=O)C6=O)CC4)CC3)cc2)ncc1Cl` (stereo not shown) [UB-181109], the IC50 is 100 to 1000 nM in the assay on NCIH82 cells (setting [1]); 10 to 100 nM with MV4;11 cells (setting [2]); greater than 1000 nM with MDA-MB-231 cells (setting [3]); greater than 1000 nM in the assay on PC-3 (Homo sapiens, PC-3, PC-3 cells).
As for `CNC(=O)c1ccccc1Nc1nc(Nc2ccc(N3CCN(C(=O)NCCOCCOCC(N)COCCC(=O)Nc4ccc5c(c4)CN(C4CCC(=O)NC4=O)C5=O)CC3)cc2)ncc1Cl` (stereo not shown) [UB-181065], the IC50 in the assay on NCIH82 cells (setting [1]) was 100 to 1000 nM; in the assay with MV4;11 cells (setting [2]), 10 to 100 nM; with MDA-MB-231 cells (setting [3]), greater than 1000 nM; in the assay on PC-3 (Homo sapiens, PC-3, PC-3 cells), greater than 1000 nM.
`O=C1CCC(N2Cc3cc(NC(=O)CCNCCCOCCCCNC(=O)[C@]4(Cc5cccc(Nc6nccs6)n5)CC[C@@H](Oc5cccc(Cl)c5F)CC4)ccc3C2=O)C(=O)N1` (stereo partly shown) [UB-181034]: the IC50 is greater than 1000 nM in the assay with NCIH82 cells (setting [1]); 100 to 1000 nM in the assay on MV4;11 cells (setting [2]); greater than 1000 nM with MDA-MB-231 cells (setting [3]); greater than 1000 nM in the assay with PC-3 (Homo sapiens, PC-3, PC-3 cells).
Regarding `CNC(=O)c1ccccc1Nc1nc(Nc2ccc(N3CCN(C(=O)NCCNCCC(=O)Nc4cccc5c4CN(C4CCC(=O)NC4=O)C5=O)CC3)cc2)ncc1Cl` (stereo not shown) [UB-181053], the IC50 in the assay on NCIH82 cells (setting [1]) was 100 to 1000 nM; with MV4;11 cells (setting [2]), 10 to 100 nM; with MDA-MB-231 cells (setting [3]), greater than 1000 nM; with PC-3 (Homo sapiens, PC-3, PC-3 cells), greater than 1000 nM.
On to `CNC(=O)c1ccccc1Nc1nc(Nc2ccc(N3CCN(C(=O)NCCOCCNCC(=O)Nc4ccc5c(c4)CN(C4CCC(=O)NC4=O)C5=O)CC3)cc2)ncc1Cl` (stereo not shown) [UB-181069], for which the IC50 in the assay on NCIH82 cells (setting [1]) was greater than 1000 nM; in the assay on MV4;11 cells (setting [2]), 10 to 100 nM; in the assay with MDA-MB-231 cells (setting [3]), greater than 1000 nM; in the assay with PC-3 (Homo sapiens, PC-3, PC-3 cells), greater than 1000 nM.
With `CNC(=O)c1ccccc1Nc1nc(Nc2ccc(N3CCN(C(=O)NCCNCCOCC(=O)Nc4cccc5c4CN(C4CCC(=O)NC4=O)C5=O)CC3)cc2)ncc1Cl` (stereo not shown) [UB-181057], the IC50 in the assay with NCIH82 cells (setting [1]) was 100 to 1000 nM; in the assay with MV4;11 cells (setting [2]), less than 10 nM; in the assay on MDA-MB-231 cells (setting [3]), greater than 1000 nM; in the assay on PC-3 (Homo sapiens, PC-3, PC-3 cells), greater than 1000 nM.
`N#Cc1ccccc1Nc1nc(Nc2ccc(N3CCN(C(=O)N[C@H]4CC[C@@H](NCCOCCC#Cc5ccc6c(c5)CN(C5CCC(=O)NC5=O)C6=O)CC4)CC3)cc2)ncc1Cl` (stereo partly shown) [UB-181133]: the IC50 was 100 to 1000 nM with NCIH82 cells (setting [1]); 10 to 100 nM with MV4;11 cells (setting [2]); greater than 1000 nM with MDA-MB-231 cells (setting [3]); 100 to 1000 nM in the assay with PC-3 (Homo sapiens, PC-3, PC-3 cells).
Regarding `CS(=O)(=O)c1ccccc1Nc1nc(Nc2ccc(C3CCN(C(=O)N[C@H]4CC[C@H](NCCOCCC#Cc5cccc6c5CN(C5CCC(=O)NC5=O)C6=O)CC4)CC3)cc2)ncc1Cl` (stereo partly shown) [UB-181139], the IC50 in the assay with NCIH82 cells (setting [1]) is 100 to 1000 nM; with MV4;11 cells (setting [2]), less than 10 nM; with MDA-MB-231 cells (setting [3]) it was 100 to 1000 nM; in the assay with PC-3 (Homo sapiens, PC-3, PC-3 cells) it was 100 to 1000 nM.
On to `CNC(=O)c1ccccc1Nc1nc(Nc2ccc(N3CCN(C(=O)NCCOCCNCCOCCC(=O)Nc4ccc5c(c4)CN(C4CCC(=O)NC4=O)C5=O)CC3)cc2)ncc1Cl` (stereo not shown) [UB-181050], for which the IC50 with NCIH82 cells (setting [1]) was 100 to 1000 nM; in the assay on MV4;11 cells (setting [2]), 100 to 1000 nM; with MDA-MB-231 cells (setting [3]), greater than 1000 nM; with PC-3 (Homo sapiens, PC-3, PC-3 cells) it was greater than 1000 nM.
With `O=C1CCC(N2Cc3cc(NC(=O)CNCCCOCCOCCNC(=O)[C@]4(Cc5cccc(Nc6nccs6)n5)CC[C@@H](Oc5cccc(Cl)c5F)CC4)ccc3C2=O)C(=O)N1` (stereo partly shown) [UB-181032], the IC50 was greater than 1000 nM in the assay on NCIH82 cells (setting [1]); 100 to 1000 nM in the assay on MV4;11 cells (setting [2]); greater than 1000 nM with MDA-MB-231 cells (setting [3]); greater than 1000 nM in the assay with PC-3 (Homo sapiens, PC-3, PC-3 cells).
In the case of `CNC(=O)c1ccccc1Nc1nc(Nc2ccc(N3CCN(C(=O)NCCOCCNCCC(=O)Nc4cccc5c4CN(C4CCC(=O)NC4=O)C5=O)CC3)cc2)ncc1Cl` (stereo not shown) [UB-181066], the IC50 in the assay on NCIH82 cells (setting [1]) is greater than 1000 nM; with MV4;11 cells (setting [2]), 10 to 100 nM; in the assay on MDA-MB-231 cells (setting [3]), greater than 1000 nM; with PC-3 (Homo sapiens, PC-3, PC-3 cells), greater than 1000 nM.
As to `CNC(=O)c1ccccc1Nc1nc(Nc2ccc(N3CCN(C(=O)NCC(O)COCCOCCOCCC(=O)Nc4ccc5c(c4)CN(C4CCC(=O)NC4=O)C5=O)CC3)cc2)ncc1Cl` (stereo not shown) [UB-181081], the IC50 in the assay with NCIH82 cells (setting [1]) is greater than 1000 nM; in the assay with MV4;11 cells (setting [2]), 10 to 100 nM; with MDA-MB-231 cells (setting [3]), greater than 1000 nM; in the assay on PC-3 (Homo sapiens, PC-3, PC-3 cells) it was greater than 1000 nM.
For the compound `CNC(=O)c1ccccc1Nc1nc(Nc2ccc(N3CCN(C(=O)NCCCCOCCCNCCC(=O)Nc4ccc5c(c4)CN(C4CCC(=O)NC4=O)C5=O)CC3)cc2)ncc1Cl` (stereo not shown) [UB-181046], the IC50 is 100 to 1000 nM in the assay on NCIH82 cells (NCI-H82 cells), less than 10 nM in the assay with MV4;11 cells (MV4;11 cells), greater than 1000 nM with MDA-MB-231 cells (MDA-MB-231 cells) and greater than 1000 nM in the assay with PC-3 (PC-3 cells).
In the case of `N#Cc1ccccc1Nc1nc(Nc2ccc(N3CCN(C(=O)N[C@H]4CC[C@@H](NCCOCCC#Cc5cccc6c5CN(C5CCC(=O)NC5=O)C6=O)CC4)CC3)cc2)ncc1Cl` (stereo partly shown) [UB-181132], the IC50 with NCIH82 cells (setting [1]) was 100 to 1000 nM; in the assay with MV4;11 cells (setting [2]), less than 10 nM; in the assay with MDA-MB-231 cells (setting [3]) it was 100 to 1000 nM; with PC-3 (Homo sapiens, PC-3, PC-3 cells), 100 to 1000 nM.
For `CNC(=O)c1ccccc1Nc1nc(Nc2ccc(N3CCN(C(=O)NCC(O)COCCOCCOCCC(=O)Nc4cccc5c4CN(C4CCC(=O)NC4=O)C5=O)CC3)cc2)ncc1Cl` (stereo not shown) [UB-181082], the concentration for half-maximal inhibition (IC50) in the assay with NCIH82 cells (setting [1]) is greater than 1000 nM; in the assay with MV4;11 cells (setting [2]) it was 10 to 100 nM; with MDA-MB-231 cells (setting [3]), greater than 1000 nM; in the assay with PC-3 (Homo sapiens, PC-3, PC-3 cells), greater than 1000 nM.
As to `CNC(=O)c1ccccc1Nc1nc(Nc2ccc(N3CCN(C(=O)NCCNCCCC(=O)Nc4cccc5c4CN(C4CCC(=O)NC4=O)C5=O)CC3)cc2)ncc1Cl` (stereo not shown) [UB-181055], the IC50 was 100 to 1000 nM with NCIH82 cells (setting [1]); 10 to 100 nM in the assay on MV4;11 cells (setting [2]); greater than 1000 nM in the assay on MDA-MB-231 cells (setting [3]); greater than 1000 nM with PC-3 (Homo sapiens, PC-3, PC-3 cells).
As to `CNC(=O)c1ccccc1Nc1nc(Nc2ccc(N3CCN(C(=O)NCCNCCOCCOCCC(=O)Nc4ccc5c(c4)CN(C4CCC(=O)NC4=O)C5=O)CC3)cc2)ncc1Cl` (stereo not shown) [UB-181044], the IC50 with NCIH82 cells (setting [1]) was 100 to 1000 nM; with MV4;11 cells (setting [2]), 10 to 100 nM; in the assay on MDA-MB-231 cells (setting [3]), greater than 1000 nM; with PC-3 (Homo sapiens, PC-3, PC-3 cells) it was greater than 1000 nM.
Turning to `CNC(=O)c1ccccc1Nc1nc(Nc2ccc(N3CCN(C(=O)NCCOCCNCCC(=O)Nc4ccc5c(c4)CN(C4CCC(=O)NC4=O)C5=O)CC3)cc2)ncc1Cl` (stereo not shown) [UB-181067], the IC50 with NCIH82 cells (setting [1]) was 100 to 1000 nM; with MV4;11 cells (setting [2]), 10 to 100 nM; in the assay on MDA-MB-231 cells (setting [3]), greater than 1000 nM; in the assay with PC-3 (Homo sapiens, PC-3, PC-3 cells), greater than 1000 nM.
For `O=C1CCC(N2Cc3cc(NC(=O)COCCOCCOCC(O)Cn4cc(-c5ccc(Nc6ncc7c(n6)-c6ccc(Cl)cc6C(c6c(F)cccc6F)=NC7)cc5)nn4)ccc3C2=O)C(=O)N1` (stereo not shown) [UB-181071], the IC50 in the assay on NCIH82 cells (setting [1]) was greater than 1000 nM; in the assay with MV4;11 cells (setting [2]) it was 100 to 1000 nM; with MDA-MB-231 cells (setting [3]), greater than 1000 nM; in the assay with PC-3 (Homo sapiens, PC-3, PC-3 cells), greater than 1000 nM.
On to `CNC(=O)c1ccccc1Nc1nc(Nc2ccc(N3CCN(C(=O)NCCCNCCOCC(=O)Nc4cccc5c4CN(C4CCC(=O)NC4=O)C5=O)CC3)cc2)ncc1Cl` (stereo not shown) [UB-181061], for which the IC50 with NCIH82 cells (setting [1]) is 100 to 1000 nM; with MV4;11 cells (setting [2]) it was less than 10 nM; in the assay with MDA-MB-231 cells (setting [3]), 100 to 1000 nM; in the assay with PC-3 (Homo sapiens, PC-3, PC-3 cells), greater than 1000 nM.
For `O=C1CCC(N2Cc3c(NC(=O)CCOCCOCCOCCN[C@H]4CC[C@@H](NC(=O)[C@]5(Cc6cccc(Nc7nccs7)n6)CC[C@@H](Oc6cccc(Cl)c6F)CC5)CC4)cccc3C2=O)C(=O)N1` (stereo partly shown) [UB-181037], the IC50 is greater than 1000 nM in the assay on NCIH82 cells (setting [1]); greater than 1000 nM in the assay on MV4;11 cells (setting [2]); greater than 1000 nM in the assay with MDA-MB-231 cells (setting [3]); greater than 1000 nM with PC-3 (Homo sapiens, PC-3, PC-3 cells).
As for `CNC(=O)c1ccccc1Nc1nc(Nc2ccc(N3CCN(C(=O)N[C@H]4CC[C@@H](NCCCOCCC(=O)Nc5cccc6c5CN(C5CCC(=O)NC5=O)C6=O)CC4)CC3)cc2)ncc1Cl` (stereo partly shown) [UB-181092], the IC50 was greater than 1000 nM in the assay on NCIH82 cells (setting [1]); 10 to 100 nM in the assay on MV4;11 cells (setting [2]); greater than 1000 nM in the assay with MDA-MB-231 cells (setting [3]); greater than 1000 nM in the assay with PC-3 (Homo sapiens, PC-3, PC-3 cells).

As usually defined, the IC50 is the concentration that inhibits the measured activity by half.
